From patent US20240208912A1 (Mirati Therapeutics, Inc., priority 2021, published 2024)
Read-outs that look alike come from different tables or passages of the source.

Assays:
[1] = molecular target: T1, PRMT5/MEP50 complex (Homo sapiens, UniProt O14744); test: PRMT5:MEP50 FlashPlate Assay (histone H4 peptide substrate, plus and minus MTA); format: biochemical
T1 construct: purchased Reaction Biology Corporation
Procedure: The PRMT5 inhibitory activity of compounds of the present invention was determined using either a PRMT5:MEP50 FlashPlate Assay (Reaction Biology Corporation) or a PRMT5:MEP50 HotSpot Assay (Reaction Biology Corporation).

[2] = system: HCT116 homozygous MTAP knockout cells; test: Proliferation assay (CellTiter-Glo, 10 days) in HCT116 homozygous MTAP knockout cells; format: cell-based; settings: CellTiter-Glo after 10 days of treatment, read-out: Proliferation IC50 (nM) HCT116 MTAP_KO
Outline: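 MTAP-null HCT116 clone made by CRISPR/Cas9 knockout of both alleles, tested beside parental cells. Cells dosed the day after seeding, split 1:10 on day 6 into fresh medium with the same compound level, and read on day 11 by CellTiter-Glo. IC50 taken after 10 days of exposure.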

[3] = molecular target: T1, PRMT5/MEP50 complex; test: PRMT5:MEP50 HotSpot Assay (full-length histone H2A substrate, plus and minus MTA); format: biochemical
Outline: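 Radiometric HotSpot format using recombinant full-length histone H2A as substrate, run with and without MTA. Reactions were stopped and spotted onto filter paper. Tritiated H2A was quantified by scintillation counting.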

[4] = system: HCT116 parental cells; test: Proliferation assay (CellTiter-Glo, 10 days) in HCT116 parental cells; format: cell-based; settings: CellTiter-Glo after 10 days of treatment
Procedure: (§1) Control samples were analyzed in parallel.
Briefly, on Day 0, 250 HCT116 parental or HCT116 homozygous MTAP knockout cell were seeded in 96 well plates in McCoy's 5A supplemented with […] fetal bovine serum and pen/strep and the cells were incubated overnight at 37° C. plus 5% CO2.
The following day, cells were treated with DMSO vehicle control or a dose response of PRMT5 inhibitors and incubated at 37 C plus 5% CO2 for five days. On Day 6, the cells were trypsinized and split 1:10 into new 96-well plates with fresh medium containing the same concentration of PRMT5 inhibitor and incubated for an additional 5 days at 37° C. plus 5% CO^2.
On Day 11, the viability of the cells was measured using a CTG assay kit (CellTiter-Glo; Promega cat.no G7573) in accordance with the manufacturer's instructions. The IC50 values for each compound after 10 days of treatment were calculated using GraphPad PRISM software.

[5] = system: PRMT5-dependent Symmetric Di-methyl Arginine signal in HCT116 homozygous MTAP Knockout cells; test: SYM11 In-Cell Western in HCT116 homozygous MTAP knockout cells; format: cell-based; settings: 4 days of treatment, SYM11/DRAQ5 ratio as percent of DMSO control, read-out: In-cell-Western (SYM11) IC50 (nM) HCT116 MTAP_KO
Outline: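 HCT116 cells with CRISPR homozygous MTAP knockout, alongside parental cells, treated four days with PRMT5 inhibitor dose response at 37° C., 5% CO2 in McCoy's 5A with 10% FBS.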

[6] = system: PRMT5-dependent Symmetric Di-methyl Arginine signal in HCT116 parental cells; test: SYM11 In-Cell Western in HCT116 parental cells; format: cell-based; settings: HCT116 parental cells, 4 days of treatment, SYM11/DRAQ5 ratio as percent of DMSO control, read-out: In-cell-Western (SYM11) IC50 (nM) HCT216 parental
Procedure: as §1
Briefly, on Day 0, 2,000 HCT116 parental or HCT116 homozygous MTAP knockout cells were seeded in 96 well plates in McCoy's 5A supplemented with 10% fetal bovine serum and pen/strep and the cells were incubated overnight at 37° C. plus 5% CO2. The following day, cells were treated with DMSO vehicle control or a dose response of PRMT5 inhibitors, and incubated at 37° C. plus 5% CO^2 for four days.
After 4 days of treatment, the cells were fixed by adding 50 μl of 4% paraformaldehyde solution to each well and the cells were incubated for 20 min at room temperature. The paraformaldehyde solution was removed, 150 μl of ice-cold methanol was added and the plate was placed −20° C. for 10 minutes. The methanol was removed, 150 μl of Odyssey Blocking buffer+0.05% Tween20 was added and the plate was incubated at room temperature with shaking for one hour.
The primary SYM11 antibody solution was removed by aspiration and the wells were washed three consecutive times with phosphate buffered saline containing 0.1% Tween-20 (PBST).
The secondary antibody solution was removed by aspiration and the wells were washed three consecutive times with PBST.
The SYM11 signal and the DRAQ5 signal were quantified using a Li-Cor Odyssey machine reading at […], respectively. The SYM11/DRAQ5 ratio was used to calculate the inhibition of Symmetric Dimethyl Arginine as percent of DMSO control.

[7] = in the absence of MTA, read-out: IC50
[8] = read-out: IC50 + 2 μM MTA, in the presence of 2 μM MTA
[9] = IC50 + 2 μM MTA, in the presence of 2 μM MTA

T1 sequence (O14744 2-637 limits assumed): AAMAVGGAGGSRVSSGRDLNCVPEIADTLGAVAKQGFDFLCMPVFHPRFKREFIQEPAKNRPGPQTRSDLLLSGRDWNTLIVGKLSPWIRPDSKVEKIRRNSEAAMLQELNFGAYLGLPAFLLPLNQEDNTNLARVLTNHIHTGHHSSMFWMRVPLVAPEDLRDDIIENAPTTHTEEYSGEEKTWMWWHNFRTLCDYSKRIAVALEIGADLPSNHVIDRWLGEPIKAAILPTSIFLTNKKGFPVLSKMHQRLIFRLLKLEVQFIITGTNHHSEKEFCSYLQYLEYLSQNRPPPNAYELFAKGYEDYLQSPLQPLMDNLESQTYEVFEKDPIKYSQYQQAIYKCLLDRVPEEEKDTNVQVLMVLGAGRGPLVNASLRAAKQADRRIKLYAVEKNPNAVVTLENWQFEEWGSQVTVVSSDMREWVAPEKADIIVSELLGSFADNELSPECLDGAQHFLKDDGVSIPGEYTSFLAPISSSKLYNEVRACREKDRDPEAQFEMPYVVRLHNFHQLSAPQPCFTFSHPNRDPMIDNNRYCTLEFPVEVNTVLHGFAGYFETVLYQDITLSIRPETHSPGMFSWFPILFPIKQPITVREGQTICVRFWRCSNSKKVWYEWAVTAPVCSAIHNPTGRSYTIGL
T1 sequence (Q9BQA1 2-342 partner limits assumed): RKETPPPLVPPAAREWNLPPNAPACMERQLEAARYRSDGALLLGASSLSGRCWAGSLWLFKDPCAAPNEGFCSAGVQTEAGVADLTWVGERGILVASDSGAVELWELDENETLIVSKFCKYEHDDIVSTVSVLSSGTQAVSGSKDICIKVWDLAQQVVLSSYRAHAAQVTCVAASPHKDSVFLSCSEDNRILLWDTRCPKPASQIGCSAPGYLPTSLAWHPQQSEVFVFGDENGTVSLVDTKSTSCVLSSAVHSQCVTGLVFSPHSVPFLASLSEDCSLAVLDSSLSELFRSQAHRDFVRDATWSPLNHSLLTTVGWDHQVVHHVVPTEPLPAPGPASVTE

Molecule	IC50 [1, 7]	IC50 [2]	IC50 [5]	IC50 [3, 9]	IC50 [4]	IC50 [6]	IC50 ([4]; Homo sapiens, HCT-116, 240 h)	other results
Cc1nc2cncc(-c3ccc4c(=O)[nH]nc(CN)c4c3)c2o1 [Example 4-110, 4-(aminomethyl)-6-(2-methyloxazolo[4,5-c]pyridin-7-yl)phthalazin-1(2H)-one]	> 100 µM							
4-(aminomethyl)-6-(5-ethoxypyrazolo[1,5-a]pyridin-3-yl)phthalazin-1(2H)-one [Example 4-158]	0.113 µM	2200 nM	> 10000 nM		1740 nM	> 10000 nM		IC50 [1, 8]: 0.0028 µM; IC50 [3, 8]: 1.46 µM
Cc1cccc(-c2c(-c3ccc4c(=O)[nH]nc(CN)c4c3)cnn2C)c1 [Example 4-94, 4-(aminomethyl)-6-(1-methyl-5-(m-tolyl)-1H-pyrazol-4-yl)phthalazin-1(2H)-one]	0.033 µM							
COc1cccc(-c2c(-c3ccc4c(=O)[nH]nc(CN)c4c3)cnn2C)c1 [Example 4-93, 4-(aminomethyl)-6-(5-(3-methoxyphenyl)-1-methyl-1H-pyrazol-4-yl)phthalazin-1(2H)-one]	0.035 µM							
CCc1cncc(-c2ccc3c(=O)[nH]nc(CN)c3c2)c1 [Example 3-13, 4-(aminomethyl)-6-(5-ethylpyridin-3-yl)-phthalazin-1(2H)-one]	0.42 µM							

Continued, in another order:

IC50 [1, 7]	IC50 [2]	IC50 [5]	IC50 [3, 9]	Molecule	IC50 [4]	IC50 [6]	IC50 ([4]; Homo sapiens, HCT-116, 240 h)	other results
	211 nM	232 nM	0.237 µM	Cc1c(F)c(-c2c(-c3ccc4c(=O)[nH]nc(CN)c4c3)cnn2C)c(C#N)c2ccccc12 (single isomer, unassigned) [Example 16-13, (P)-2-[4-[4-(aminomethyl)-1-oxo-2H-phthalazin-6-yl]-2-methyl-pyrazol-3-yl]-3-fluoro-4-methyl-naphthalene-1-carbonitrile]	770 nM	> 1000 nM		
			0.451 µM	CCOc1cc(-c2cnn(C)c2-c2c(F)c(C)c3ncc(Cl)cc3c2C#N)cc2c(CN)n[nH]c(=O)c12 (single isomer, unassigned) [Example 16-111, (P)-6-(4-(4-(aminomethyl)-8-ethoxy-1-oxo-1,2-dihydrophthalazin-6-yl)-1-methyl-1H-pyrazol-5-yl)-3-chloro-7-fluoro-8-methylquinoline-5-carbonitrile]			57 nM	IC50 ([2]; Homo sapiens, HCT-116, 240 h): 21 nM; IC50 ([5]; Homo sapiens, HCT-116, 96 h): 344 nM; IC50 ([6]; Homo sapiens, HCT-116, 96 h): 686 nM
	8 nM	3 nM	0.0123 µM	Cc1c(F)c(-c2c(-c3ccc4c(=O)[nH]nc(CN)c4c3)cnn2C)c(C#N)c2ccccc12 (single isomer, unassigned) [Example 16-14, (M)-2-[4-[4-(aminomethyl)-1-oxo-2H-phthalazin-6-yl]-2-methyl-pyrazol-3-yl]-3-fluoro-4-methyl-naphthalene-1-carbonitrile]	4400 nM	378 nM		
			0.019 µM	Cc1c(F)c(-c2c(-c3cc(Cl)c4c(=O)[nH]nc(CN)c4c3)cnn2C)c(C#N)c2cc(Cl)cnc12 (single isomer, unassigned) [Example 16-110, (M)-6-(4-(4-(aminomethyl)-8-chloro-1-oxo-1,2-dihydrophthalazin-6-yl)-1-methyl-1H-pyrazol-5-yl)-3-chloro-7-fluoro-8-methylquinoline-5-carbonitrile]			423 nM	IC50 ([2]; Homo sapiens, HCT-116, 240 h): 16 nM; IC50 ([5]; Homo sapiens, HCT-116, 96 h): 6 nM; IC50 ([6]; Homo sapiens, HCT-116, 96 h): 176 nM
	112 nM	65 nM	0.462 µM	Cn1ncc(-c2ccc3c(=O)[nH]nc(CN)c3c2)c1-c1c(F)ccc(OC2CC2)c1C#N (single isomer, unassigned) [Example 16-21, (P)-2-[4-[4-(aminomethyl)-1-oxo-2H-phthalazin-6-yl]-2-methyl-pyrazol-3-yl]-6-(cyclopropoxy)-3-fluoro-benzonitrile]		4480 nM	4210 nM	
